# Source: patent publication US20220033406A1, “C[…] AS ANTI-VIRALS” (priority 2018, published 2022)
# Like-named read-outs stand apart in the source and are kept apart here.
# Assays:
# [1] = test system: VSV-G pseudotyped HIV NL4-3; assay: microbe, parasite or virus in culture; format: cell-based
# [2] = test system: HBV; assay: Inhibition of HBV in HepG2.117 cells (anti-HBV activity, qPCR); format: cell-based; settings: HBV viral DNA copy numbers in supernatant by qPCR
# [3] = Human immunodeficiency virus 1, NL43, 72 h, read-out: HIV EC50 (uM)
# [4] = Hepatitis B virus, HepG2.117, 96 h, Table 4 phosphoramidate prodrugs
# [5] = Hepatitis B virus, HepG2.117, 96 h, Table 2 nucleosides
SMILES,EC50 ([1]; read-out: HIV EC50) [µM],"EC50 ([2]; 96 h, Table 4 phosphoramidate prodrugs) [nM]","EC50 [1, 3] [µM]","EC50 [2, 4] [nM]","EC50 [2, 5] [nM]"
"C=C1[C@@H](n2cnc3c(=O)[nH]c(N)nc32)C[C@H](O)[C@@]1(C#N)COP(=O)(N[C@@H](C)C(=O)OC(C)C)Oc1ccccc1 (single isomer, unassigned) [Example 43, Isopropyl ((R*)-(((1S,3S,5S)-3-(2-amino-6-oxo-1,6-dihydro-9H-purin-9-yl)-1-cyano-5-hydroxy-2-methylenecyclopentyl)methoxy)(phenoxy)phosphoryl)-L-alaninate]",4.25,591,–,–,–
"C=C1[C@@H](n2cnc3c(=O)[nH]c(N)nc32)C[C@H](O)[C@@]1(C#N)COP(=O)(N[C@@H](C)C(=O)OC(C)C)Oc1ccccc1 (single isomer, unassigned) [Example 44, Isopropyl ((S*)-(((1S,3S,5S)-3-(2-amino-6-oxo-1,6-dihydro-9H-purin-9-yl)-1-cyano-5-hydroxy-2-methylenecyclopentyl)methoxy)(phenoxy)phosphoryl)-L-alaninate]",–,–,2.29,459,–
"C=C1[C@@H](n2ccc3c(N)ncnc32)C[C@H](O)[C@@]1(F)CO [Example 1, (1S,2S,4S)-4-(4-Amino-7H-pyrrolo[2,3-d]pyrimidin-7-yl)-2-fluoro-2-(hydroxymethyl)-3-methylenecyclopentan-1-ol]",–,–,–,–,10.9
"C=C1[C@H](CO)[C@@H](O)C[C@@H]1n1ccc2c(=O)[nH]c(N)nc21 [Example 2, 2-Amino-7-((1S,3R,4S)-4-hydroxy-3-(hydroxymethyl)-2-methylenecyclopentyl)-3,7-dihydro-4H-pyrrolo[2,3-d]pyrimidin-4-one]",–,–,> 33.3,–,> 10000
"C=C1[C@@H](n2cc(C)c(=O)[nH]c2=O)C[C@H](O)[C@@]1(F)CO [Example 3, 1-((1S,3S,4S)-3-Fluoro-4-hydroxy-3-(hydroxymethyl)-2-methylenecyclopentyl)-5-methylpyrimidine-2,4(1H,3H)-dione]",–,–,> 33.3,–,> 10000
"C=C1[C@@H](n2cnc3c(=O)[nH]c(N)nc32)C[C@H](O)[C@@]1(F)CO [Example 4, 2-Amino-9-((1S,3S,4S)-3-fluoro-4-hydroxy-3-(hydroxymethyl)-2-methylenecyclopentyl)-1,9-dihydro-6H-purin-6-one]",–,–,0.0356,–,< 0.9
"C=C1[C@H](n2cnc3c(=O)[nH]c(N)nc32)C[C@H](O)[C@]1(F)CO [Example 5, 2-Amino-9-((1R,3R,4S)-3-fluoro-4-hydroxy-3-(hydroxymethyl)-2-methylenecyclopentyl)-1,9-dihydro-6H-purin-6-one]",–,–,> 33.3,–,2470
"C=C1[C@@H](n2cnc3c(N)ncnc32)C[C@H](O)[C@@]1(F)CO [Example 6, (1S,2S,4S)-4-(6-Amino-9H-purin-9-yl)-2-fluoro-2-(hydroxymethyl)-3-methylenecyclopentan-1-ol]",–,–,2.68,–,61.7
"C=C1[C@H](n2cnc3c(N)ncnc32)C[C@H](O)[C@]1(F)CO [Example 7, (1S,2R,4R)-4-(6-Amino-9H-purin-9-yl)-2-fluoro-2-(hydroxymethyl)-3-methylenecyclopentan-1-ol]",–,–,> 33.3,–,> 10000
"C=C1[C@H](CO)[C@@H](O)C[C@@H]1n1ccc2c(N)ncnc21 [Example 9, (1S,2R,4S)-4-(4-Amino-7H-pyrrolo[2,3-d]pyrimidin-7-yl)-2-(hydroxymethyl)-3-methylenecyclopentan-1-ol]",–,–,> 33.3,–,7410
"C=C1[C@@H](n2cnc3c(=O)[nH]c(N)nc32)C[C@H](O)[C@]1(CO)CF [Example 10, 2-Amino-9-((1S,3S,4S)-3-(fluoromethyl)-4-hydroxy-3-(hydroxymethyl)-2-methylenecyclopentyl)-1,9-dihydro-6H-purin-6-one]",–,–,0.662,–,166
"C=C1[C@@H](n2ccc(N)nc2=O)C[C@H](O)[C@]1(CO)CF [Example 11, 4-Amino-1-((1S,3S,4S)-3-(fluoromethyl)-4-hydroxy-3-(hydroxymethyl)-2-methylenecyclopentyl)pyrimidin-2(1H)-one]",–,–,0.911,–,9180
"C=C1[C@@H](n2cc(C)c(=O)[nH]c2=O)C[C@H](O)[C@]1(CO)CF [Example 12, 1-((1S,3S,4S)-3-(fluoromethyl)-4-hydroxy-3-(hydroxymethyl)-2-methylenecyclopentyl)-5-methylpyrimidine-2,4(1H,3H)-dione]",–,–,> 33.3,–,> 10000
"C=C1[C@@H](n2cnc3c(N)ncnc32)C[C@H](O)[C@]1(CO)CF [Example 13, (1S,2S,4S)-4-(6-Amino-9H-purin-9-yl)-2-(fluoromethyl)-2-(hydroxymethyl)-3-methylenecyclopentan-1-ol]",–,–,5.02,–,> 5530
"C=C1[C@@H](n2cnc3c(N)ncnc32)C[C@H](O)[C@]1(CO)CCl [Example 14, (1S,2S,4S)-4-(6-Amino-9H-purin-9-yl)-2-(chloromethyl)-2-(hydroxymethyl)-3-methylenecyclopentan-1-ol]",–,–,1.08,–,3450
"C=C1[C@@H](n2cc(C)c(=O)[nH]c2=O)C[C@H](O)[C@@]1(C#N)CO [Example 15, (1S,3S,5S)-5-Hydroxy-1-(hydroxymethyl)-3-(5-methyl-2,4-dioxo-3,4-dihydropyrimidin-1(2H)-yl)-2-methylenecyclopentane-1-carbonitrile]",–,–,> 33.3,–,> 10000
"C=C1[C@@H](n2ccc(N)nc2=O)C[C@H](O)[C@@]1(C#N)CO [Example 16, (1S,3S,5S)-3-(4-Amino-2-oxopyrimidin-1(2H)-yl)-5-hydroxy-1-(hydroxymethyl)-2-methylenecyclopentane-1-carbonitrile]",–,–,5.83,–,> 10000
"C=C1[C@@H](n2cnc3c(N)ncnc32)C[C@H](O)[C@@]1(C#N)CO [Example 17, (1S,3S,5S)-3-(6-Amino-9H-purin-9-yl)-5-hydroxy-1-(hydroxymethyl)-2-methylenecyclopentane-1-carbonitrile]",–,–,2.21,–,> 10000
"C=C1[C@@H](n2cnc3c(=O)[nH]c(N)nc32)C[C@H](O)[C@@]1(C#N)CO [Example 18, (1S,3S,5S)-3-(2-Amino-6-oxo-1,6-dihydro-9H-purin-9-yl)-5-hydroxy-1-(hydroxymethyl)-2-methylenecyclopentane-1-carbonitrile]",–,–,0.12,–,46.6
"C#C[C@]1(CO)C(=C)[C@@H](n2cnc3c(N)ncnc32)C[C@@H]1O [Example 19, (1S,2R,4S)-4-(6-Amino-9H-purin-9-yl)-2-ethynyl-2-(hydroxymethyl)-3-methylenecyclopentan-1-ol]",–,–,0.0665,–,> 10000
"C=C[C@]1(CO)C(=C)[C@@H](n2cnc3c(N)ncnc32)C[C@@H]1O [Example 20, (1S,2R,4S)-4-(6-Amino-9H-purin-9-yl)-2-(hydroxymethyl)-3-methylene-2-vinylcyclopentan-1-ol]",–,–,0.547,–,> 10000
"C#C[C@]1(COP(=O)(N[C@@H](C)C(=O)OC(C)C)Oc2ccccc2)C(=C)[C@@H](n2cnc3c(N)ncnc32)C[C@@H]1O (stereo partly drawn) [Example 38, Isopropyl ((((1R,3S,5S)-3-(6-amino-9H-purin-9-yl)-1-ethynyl-5-hydroxy-2-methylenecyclopentyl)methoxy)(phenoxy)phosphoryl)-L-alaninate]",–,–,0.0506,2370,–
"C=C1[C@@H](n2cnc3c(N)ncnc32)C[C@H](O)[C@@]1(F)COP(=O)(N[C@@H](C)C(=O)OCC(C)(C)C)Oc1ccccc1 (stereo partly drawn) [Example 39, Neopentyl ((((1S,3S,5S)-3-(6-amino-9H-purin-9-yl)-1-fluoro-5-hydroxy-2-methylenecyclopentyl)methoxy)(phenoxy)phosphoryl)-L-alaninate]",–,–,0.0139,0.3,–
"C=C1[C@@H](n2cnc3c(N)ncnc32)C[C@H](O)[C@@]1(CF)COP(=O)(N[C@@H](C)C(=O)OC(C)C)Oc1ccccc1 (stereo partly drawn) [Example 40, Isopropyl ((((1S,3S,5S)-3-(6-amino-9H-purin-9-yl)-1-(fluoromethyl)-5-hydroxy-2-methylenecyclopentyl)methoxy)(phenoxy)phosphoryl)-L-alaninate]",–,–,0.144,13.7,–
"C=C1[C@@H](n2cc(C)c(=O)[nH]c2=O)C[C@H](O)[C@@]1(C#N)COP(=O)(N[C@@H](C)C(=O)OC(C)C)Oc1ccccc1 (stereo partly drawn) [Example 41, Isopropyl ((((1S,3S,5S)-1-cyano-5-hydroxy-3-(5-methyl-2.4-dioxo-3.4-dihydropyrimidin-1(2H)-yl)-2-methylenecyclopentyl)methoxy)(phenoxy)phosphoryl)-L-alaninate]",–,–,10.2,> 10000,–
"C=C1[C@@H](n2ccc(N)nc2=O)C[C@H](O)[C@@]1(C#N)COP(=O)(N[C@@H](C)C(=O)OC(C)C)Oc1ccccc1 (stereo partly drawn) [Example 42, Isopropyl ((((1S,3S,5S)-3-(4-amino-2-oxopyrimidin-1(2H)-yl)-1-cyano-5-hydroxy-2-methylenecyclopentyl)methoxy)(phenoxy)phosphoryl)-L-alaninate]",–,–,10.4,> 10000,–
